Reference: US20250352464A1, “TOPICAL COMPOSITIONS AND METHODS FOR TREATING DERMATOPOROSIS” (GALDERMA HOLDING SA, priority 2023, published 2025)

Key:
human keratinocytes = experiment: in vitro gene expression analysis (RNA sequencing) in keratinocytes; type: cell-based; details: 72 hrs, mandelic acid 0.05%
Excerpt: Genes were annotated using the Reactome Database.

[1] = tested on: human primary adult dermal fibroblasts and human primary adult dermal keratinocytes; details: 24 h
Description: To determine suitable dosing of Centella asiatica extract and mandelic acid, human primary adult dermal fibroblasts and human primary adult dermal keratinocytes were purchased from ZenBio (https://www.zen-bio.com/, Durham, NC) and plated as per the provided ZenBio protocols in the recommended media from ZenBio.
Approximately 10k cells were plated per well in each well of a 96-well plate. […] Centella asiatica extract concentrations ranged from 0.00025% to 0.25%, in 2× steps. […] After 24 hours of treatment, an alamar blue assay was performed. The plate was then read in an Envision plate reader with 560 nm excitation and 590 nm emission filters to determine cell viability.

[2] = human keratinocytes grown to confluence, Centella asiatica extract 0.005%, combination same concentrations, vs untreated cells

Question: Which results are given for `O=C(O)C(O)c1ccccc1` (stereo not drawn) [Mandelic Acid, mandelic acid]?
Answer: Modulation of Gene Expression (Fold Change): CEBPB (human keratinocytes; [2]): −2.45 Fold Change; Modulation of Gene Expression (Fold Change): HIST1H2BD (human keratinocytes; [2]): 0.55 Fold Change; Modulation of Gene Expression (Fold Change): HIST1H2BG (human keratinocytes; [2]): 0.45 Fold Change; Modulation of Gene Expression (Fold Change): HIST1H3D (human keratinocytes; [2]): −0.23 Fold Change; Modulation of Gene Expression (Fold Change): HIST1H4E (human keratinocytes; [2]): 0.60 Fold Change; Modulation of Gene Expression (Fold Change): HIST1H4H (human keratinocytes; [2]): −0.54 Fold Change; Modulation of Gene Expression (Fold Change): IL1B (human keratinocytes; [2]): 1.73 Fold Change; Modulation of Gene Expression (Fold Change): IL8 (human keratinocytes; [2]): −1.46 Fold Change; Modulation of Gene Expression (Fold Change): TNF (human keratinocytes; [2]): −2.69 Fold Change; Modulation of Gene Expression (Fold Change): UBB (human keratinocytes; [2]): −3.87 Fold Change; Modulation of Gene Expression (Fold Change): UBC (human keratinocytes; [2]): −1.09 Fold Change; Modulation of Gene Expression (Fold Change): UBE2C (human keratinocytes; [2]): 0.51 Fold Change; expression of p15 (CDKN2B) (human keratinocytes; human keratinocytes, Centella 0.005%, FIG. 5): upregulate; pro-inflammatory gene expression (MMP2, HSPA8, CSF2RA, CXCL1, IL2RB, NFKBIA, PTG52) (human keratinocytes; human keratinocytes, Centella 0.005%, FIGS. 4A-4G): significantly downregulated; highest concentration not resulting in cytotoxicity [1]: 0.05%
